ChEMBL document CHEMBL1201862, “PubChem BioAssay data set” (2004)
Active and inactive are the calls of the source.

What was measured:
[1] = target: Death-associated protein kinase 3 (Homo sapiens, UniProt O43293); type: functional;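 also: measured as one member of a kinome-wide profiling panel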
[2] = target: Vascular endothelial growth factor receptor 1 (Homo sapiens, UniProt P17948); type: functional;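 also: measured within a kinome-wide profiling panel, FLT1 as the panel member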
[3] = target: Dual specificity tyrosine-phosphorylation-regulated kinase 1A (Homo sapiens, UniProt Q13627); type: functional;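 also: measured against DYRK1A as one member of a broad kinome profiling panel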
[4] = THP-1 cell cytotoxicity, cytotoxicity control, set 4 (AID 504911); type: functional; settings: Mycobacterium tuberculosis
[5] = Vero cell cytotoxicity, dose response, cytotoxicity control for M. tuberculosis growth inhibitor project, Vero cells, purified and synthesized compounds, set 4 (AID 504854); type: functional; settings: Mycobacterium tuberculosis
LIM domain kinase 1 = LIM domain kinase 1 (Homo sapiens, UniProt P53667); test: Navigating the Kinome. Panel member name: LIMK1; type: functional
Chain of LIM domain kinase 1 (P53667 whole entry, the tested form may be a part): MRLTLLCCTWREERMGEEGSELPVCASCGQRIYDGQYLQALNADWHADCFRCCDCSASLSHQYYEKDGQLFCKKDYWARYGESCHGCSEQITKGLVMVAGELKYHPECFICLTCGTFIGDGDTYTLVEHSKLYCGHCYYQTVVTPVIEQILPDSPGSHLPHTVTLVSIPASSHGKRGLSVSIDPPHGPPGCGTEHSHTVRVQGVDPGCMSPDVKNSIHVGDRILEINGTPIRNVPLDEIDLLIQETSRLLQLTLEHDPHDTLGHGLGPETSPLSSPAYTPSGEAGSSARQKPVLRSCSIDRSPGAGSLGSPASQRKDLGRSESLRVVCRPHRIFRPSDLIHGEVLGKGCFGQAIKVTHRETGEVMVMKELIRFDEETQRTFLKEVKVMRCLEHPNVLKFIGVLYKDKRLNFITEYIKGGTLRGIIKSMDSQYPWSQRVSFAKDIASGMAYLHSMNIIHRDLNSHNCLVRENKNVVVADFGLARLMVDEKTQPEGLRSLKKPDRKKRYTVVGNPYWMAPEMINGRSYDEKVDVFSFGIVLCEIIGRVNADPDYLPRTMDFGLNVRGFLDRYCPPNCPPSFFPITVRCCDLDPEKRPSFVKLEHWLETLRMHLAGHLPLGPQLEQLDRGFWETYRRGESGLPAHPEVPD

[6] = target: Neuropeptides B/W receptor type 1 (Homo sapiens, UniProt P48145); test: human NPBW1 receptor blockade, IC50 – cell-based, fluorescence, dose response, set 5, late-stage follow-up (AID 588566); type: functional
Chain of Neuropeptides B/W receptor type 1 (P48145 whole entry): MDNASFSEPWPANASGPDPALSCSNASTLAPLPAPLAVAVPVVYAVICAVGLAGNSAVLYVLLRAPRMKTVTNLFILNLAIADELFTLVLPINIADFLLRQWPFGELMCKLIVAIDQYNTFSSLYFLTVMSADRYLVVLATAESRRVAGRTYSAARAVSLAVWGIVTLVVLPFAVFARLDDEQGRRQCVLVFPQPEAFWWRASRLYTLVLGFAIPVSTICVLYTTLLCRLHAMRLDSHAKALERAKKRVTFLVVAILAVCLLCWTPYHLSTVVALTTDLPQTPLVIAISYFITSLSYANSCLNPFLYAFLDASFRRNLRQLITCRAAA

[7] = target: Melanin-concentrating hormone receptor 1 (Homo sapiens, UniProt Q99705); test: Late-stage fluorescence-based counterscreen for antagonists of the G-protein coupled receptor 7 (GPR7): cell-based dose response assay to identify antagonists of the melanin-concentrating hormone receptor 1 (MCHR1) Set 5.; type: functional
Chain of Melanin-concentrating hormone receptor 1 (Q99705 whole entry): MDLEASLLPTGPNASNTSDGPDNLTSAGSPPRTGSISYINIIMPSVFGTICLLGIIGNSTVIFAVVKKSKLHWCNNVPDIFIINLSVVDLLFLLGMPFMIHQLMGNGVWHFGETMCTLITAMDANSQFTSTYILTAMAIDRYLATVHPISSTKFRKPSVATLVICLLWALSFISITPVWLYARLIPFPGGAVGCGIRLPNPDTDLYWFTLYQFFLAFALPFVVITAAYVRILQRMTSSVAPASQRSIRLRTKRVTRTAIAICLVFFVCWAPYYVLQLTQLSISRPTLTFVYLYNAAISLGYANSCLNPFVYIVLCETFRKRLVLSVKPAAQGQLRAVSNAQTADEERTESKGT

Wee1-like protein kinase = Wee1-like protein kinase (Homo sapiens, UniProt P30291); test: Navigating the Kinome. Panel member name: WEE1; type: functional
Chain of Wee1-like protein kinase (P30291 whole entry): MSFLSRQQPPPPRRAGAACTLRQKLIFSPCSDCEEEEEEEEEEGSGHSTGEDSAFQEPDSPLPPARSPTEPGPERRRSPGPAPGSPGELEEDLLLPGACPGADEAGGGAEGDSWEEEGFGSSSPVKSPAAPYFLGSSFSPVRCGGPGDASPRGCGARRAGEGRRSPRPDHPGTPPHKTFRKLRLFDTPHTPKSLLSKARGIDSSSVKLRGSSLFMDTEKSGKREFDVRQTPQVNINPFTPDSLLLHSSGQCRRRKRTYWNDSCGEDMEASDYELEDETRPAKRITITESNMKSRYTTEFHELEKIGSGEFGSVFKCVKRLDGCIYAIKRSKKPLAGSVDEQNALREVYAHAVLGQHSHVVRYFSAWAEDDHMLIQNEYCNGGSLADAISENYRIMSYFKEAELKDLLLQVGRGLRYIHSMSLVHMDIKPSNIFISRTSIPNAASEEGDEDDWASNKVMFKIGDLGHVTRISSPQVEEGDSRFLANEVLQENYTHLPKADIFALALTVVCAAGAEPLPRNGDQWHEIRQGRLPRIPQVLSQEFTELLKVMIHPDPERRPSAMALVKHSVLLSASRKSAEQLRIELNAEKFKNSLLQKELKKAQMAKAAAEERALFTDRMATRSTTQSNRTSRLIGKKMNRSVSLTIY

[8] = target: Cell division cycle 7-related protein kinase (Homo sapiens, UniProt O00311); type: functional;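 also: value obtained from a kinome-wide kinase panel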
Chain of Cell division cycle 7-related protein kinase (O00311 whole entry): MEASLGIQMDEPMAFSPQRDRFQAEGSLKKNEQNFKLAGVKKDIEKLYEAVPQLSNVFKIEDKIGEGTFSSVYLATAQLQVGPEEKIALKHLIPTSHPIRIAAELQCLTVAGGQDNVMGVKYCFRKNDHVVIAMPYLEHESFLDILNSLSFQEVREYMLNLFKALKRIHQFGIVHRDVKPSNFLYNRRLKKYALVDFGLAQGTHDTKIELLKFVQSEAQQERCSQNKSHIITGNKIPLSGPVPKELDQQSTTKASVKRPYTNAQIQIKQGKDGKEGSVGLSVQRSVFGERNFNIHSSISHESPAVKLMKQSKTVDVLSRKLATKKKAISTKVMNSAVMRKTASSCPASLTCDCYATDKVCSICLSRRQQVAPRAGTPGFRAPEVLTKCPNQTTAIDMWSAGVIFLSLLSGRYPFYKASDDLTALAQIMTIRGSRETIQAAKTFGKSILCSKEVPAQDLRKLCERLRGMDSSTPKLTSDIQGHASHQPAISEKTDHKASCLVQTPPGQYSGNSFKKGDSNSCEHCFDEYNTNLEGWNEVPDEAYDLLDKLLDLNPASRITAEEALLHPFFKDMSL

[9] = target: T1, Orexin/Hypocretin receptor type 1 (Homo sapiens, UniProt O43613); test: Homogeneous Time Resolved Fluorescence (HTRF)-based cell-based high throughput dose response assay for antagonists of the orexin 1 receptor (OX1R; HCRTR1). [Related pubchem assays (depositor defined):AID434989, AID435008, AID463079, AID485270, AID492963, AID492964, AID492965, AID493232, AID504717, AID504718]; type: functional
T1 sequence (O43613 whole entry): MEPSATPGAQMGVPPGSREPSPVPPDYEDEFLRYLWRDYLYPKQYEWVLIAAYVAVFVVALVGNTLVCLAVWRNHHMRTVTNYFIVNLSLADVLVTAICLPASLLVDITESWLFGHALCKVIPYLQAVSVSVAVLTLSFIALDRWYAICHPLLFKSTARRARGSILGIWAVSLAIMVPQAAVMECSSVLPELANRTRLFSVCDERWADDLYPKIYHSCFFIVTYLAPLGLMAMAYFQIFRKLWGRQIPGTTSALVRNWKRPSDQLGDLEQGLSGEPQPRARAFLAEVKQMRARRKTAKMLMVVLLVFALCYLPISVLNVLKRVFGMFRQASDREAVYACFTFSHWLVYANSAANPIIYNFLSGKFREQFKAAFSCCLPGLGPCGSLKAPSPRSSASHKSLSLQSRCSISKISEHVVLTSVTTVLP

CHO-K1 = test: (§1) Counterscreen for antagonists of the orexin 1 receptor (OX1R; HCRTR1): Homogeneous time resolved fluorescence (HTRF)-based cell-based dose response assay to identify antagonists of the parental CHO-K1 cell line. [Related pubchem assays (depositor defined):AID434989, AID435008, AID463079, AID485270, AID492963, AID492964, AID492965, AID493232, AID504699, AID504701]; type: functional; settings: Cricetulus griseus
[10] = target: T1, Orexin/Hypocretin receptor type 1; test: Fluorescence-based cell-based high throughput dose response assay for antagonists of the orexin 1 receptor (OX1R; HCRTR1). [Related pubchem assays (depositor defined):AID434989, AID435008, AID463079, AID485270, AID492963, AID492964, AID492965, AID493232, AID504717, AID504718]; type: functional
Orexin receptor type 2 [11] = target: T2, Orexin receptor type 2 (Homo sapiens, UniProt O43614); test: Counterscreen assay for antagonists of the orexin 1 receptor (OX1R; HCRTR1): Fluorescence-based cell-based dose response assay for antagonists of the orexin 2 receptor (OX2R; HCRTR2), run by assay provider.; type: functional
T2 sequence (O43614 whole entry): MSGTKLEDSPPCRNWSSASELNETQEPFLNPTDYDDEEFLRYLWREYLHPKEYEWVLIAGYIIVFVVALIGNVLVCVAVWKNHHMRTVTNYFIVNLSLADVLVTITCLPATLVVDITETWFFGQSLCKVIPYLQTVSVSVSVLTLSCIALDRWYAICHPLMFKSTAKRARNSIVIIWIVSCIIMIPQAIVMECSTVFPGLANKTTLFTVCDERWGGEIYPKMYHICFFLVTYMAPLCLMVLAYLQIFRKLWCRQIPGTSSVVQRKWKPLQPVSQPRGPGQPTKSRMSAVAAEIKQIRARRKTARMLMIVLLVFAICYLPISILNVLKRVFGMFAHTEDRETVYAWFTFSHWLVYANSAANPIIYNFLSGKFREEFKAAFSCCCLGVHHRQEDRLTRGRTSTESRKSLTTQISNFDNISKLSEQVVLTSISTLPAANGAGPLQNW

[12] = as §1, with “Fluorescence-based” for “Homogeneous time resolved fluorescence (HTRF)-based”, “cell-based high throughput” for “cell-based”, “CHO” for “CHO-K1”; type: functional
Orexin receptor type 2 [13] = target: T2, Orexin receptor type 2; test: Counterscreen assay for antagonists of the orexin 1 receptor (OX1R; HCRTR1): Homogeneous Time Resolved Fluorescence (HTRF)-based cell-based dose response assay for antagonists of the orexin 2 receptor (OX2R; HCRTR2), run by assay provider.; type: functional
[14] = target: Vascular endothelial growth factor receptor 2 (Homo sapiens, UniProt P35968); type: functional
Aurora kinase B = Aurora kinase B (Homo sapiens, UniProt Q96GD4); type: functional
Chain of Aurora kinase B (Q96GD4 whole entry): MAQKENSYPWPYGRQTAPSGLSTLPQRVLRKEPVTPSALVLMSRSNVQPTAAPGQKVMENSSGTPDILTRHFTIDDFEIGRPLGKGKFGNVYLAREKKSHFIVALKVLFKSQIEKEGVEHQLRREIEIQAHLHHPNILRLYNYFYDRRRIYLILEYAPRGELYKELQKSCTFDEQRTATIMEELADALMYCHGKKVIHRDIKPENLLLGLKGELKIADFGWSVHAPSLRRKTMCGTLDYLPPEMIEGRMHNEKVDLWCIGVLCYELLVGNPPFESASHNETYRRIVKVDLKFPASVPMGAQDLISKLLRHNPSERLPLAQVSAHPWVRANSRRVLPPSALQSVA

Aurora kinase A = Aurora kinase A (Homo sapiens, UniProt O14965); type: functional;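 also: value from the Navigating the Kinome kinase panel profiling, panel entry STK6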
Chain of Aurora kinase A (O14965 whole entry): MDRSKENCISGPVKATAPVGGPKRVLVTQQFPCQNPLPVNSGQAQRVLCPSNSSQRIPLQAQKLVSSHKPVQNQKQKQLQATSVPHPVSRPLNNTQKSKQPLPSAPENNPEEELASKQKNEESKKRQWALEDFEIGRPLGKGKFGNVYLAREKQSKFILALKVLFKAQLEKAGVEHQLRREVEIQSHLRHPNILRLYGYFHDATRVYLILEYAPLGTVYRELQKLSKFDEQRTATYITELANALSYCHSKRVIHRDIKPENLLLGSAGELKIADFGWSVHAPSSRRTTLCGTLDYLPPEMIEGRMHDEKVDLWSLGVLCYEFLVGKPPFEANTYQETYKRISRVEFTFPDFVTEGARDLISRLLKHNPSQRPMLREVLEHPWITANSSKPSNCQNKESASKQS

[15] = cAMP pathway inhibition in counterscreen cell line – TR-FRET cAMP detection, counter-screen for MC4R biased antagonist project, dose response (AID 602305); type: functional, cell-based;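 also: U2OS cells stimulated with forskolin near its EC80 as the cAMP inducer; potency is for inhibition of forskolin-stimulated cAMP signaling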
[16] = Luminescence Cell-Based Dose Retest to Confirm Inhibitors of Cancer Stem Cells. [Related pubchem assays (depositor defined):AID2717, AID2721]; type: functional; settings: Homo sapiens
[17] = target: T3, Microphthalmia-associated transcription factor (Homo sapiens, UniProt O75030); test: reducers of TRPM1 reporter luminescence, concentration series – cell-based, SK-MEL-5, cherry-picked, set 3, MITF inhibitor project, dose response (AID 493073); type: functional;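 also: SK-MEL-5 melanoma cells with luciferase driven by the MITF target TRPM1 promoter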
T3 sequence (O75030 whole entry): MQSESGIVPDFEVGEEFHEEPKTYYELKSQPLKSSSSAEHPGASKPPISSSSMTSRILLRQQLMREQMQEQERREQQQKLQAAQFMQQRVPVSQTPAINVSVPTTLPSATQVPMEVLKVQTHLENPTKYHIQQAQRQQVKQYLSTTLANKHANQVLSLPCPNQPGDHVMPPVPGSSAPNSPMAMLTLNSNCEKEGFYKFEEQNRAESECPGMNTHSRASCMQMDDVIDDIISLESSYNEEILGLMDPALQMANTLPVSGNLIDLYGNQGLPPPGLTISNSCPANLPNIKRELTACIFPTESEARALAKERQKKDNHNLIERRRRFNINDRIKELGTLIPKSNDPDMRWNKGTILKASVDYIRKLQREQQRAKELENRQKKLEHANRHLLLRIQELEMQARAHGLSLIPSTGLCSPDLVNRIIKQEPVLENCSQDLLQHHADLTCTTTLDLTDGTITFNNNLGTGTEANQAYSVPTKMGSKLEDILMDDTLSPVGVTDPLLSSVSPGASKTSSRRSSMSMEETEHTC

Melanocortin receptor 4 = Melanocortin receptor 4 (Homo sapiens, UniProt P32245); test: inhibitors of MC4R cAMP signaling – cell-based, TR-FRET, biased antagonists, dose response (AID 602298); type: functional;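 also: antagonist potency against agonist-stimulated cAMP production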
Chain of Melanocortin receptor 4 (P32245 whole entry): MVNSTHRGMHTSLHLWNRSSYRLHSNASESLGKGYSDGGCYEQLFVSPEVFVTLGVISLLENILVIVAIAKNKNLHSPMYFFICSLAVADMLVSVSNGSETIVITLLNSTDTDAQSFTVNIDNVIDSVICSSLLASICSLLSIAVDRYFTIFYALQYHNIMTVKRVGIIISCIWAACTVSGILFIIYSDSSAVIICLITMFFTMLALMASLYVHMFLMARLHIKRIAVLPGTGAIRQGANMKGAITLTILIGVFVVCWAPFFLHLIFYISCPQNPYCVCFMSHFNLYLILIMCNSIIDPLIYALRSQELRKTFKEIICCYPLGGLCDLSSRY

Chain of Death-associated protein kinase 3 (O43293 whole entry): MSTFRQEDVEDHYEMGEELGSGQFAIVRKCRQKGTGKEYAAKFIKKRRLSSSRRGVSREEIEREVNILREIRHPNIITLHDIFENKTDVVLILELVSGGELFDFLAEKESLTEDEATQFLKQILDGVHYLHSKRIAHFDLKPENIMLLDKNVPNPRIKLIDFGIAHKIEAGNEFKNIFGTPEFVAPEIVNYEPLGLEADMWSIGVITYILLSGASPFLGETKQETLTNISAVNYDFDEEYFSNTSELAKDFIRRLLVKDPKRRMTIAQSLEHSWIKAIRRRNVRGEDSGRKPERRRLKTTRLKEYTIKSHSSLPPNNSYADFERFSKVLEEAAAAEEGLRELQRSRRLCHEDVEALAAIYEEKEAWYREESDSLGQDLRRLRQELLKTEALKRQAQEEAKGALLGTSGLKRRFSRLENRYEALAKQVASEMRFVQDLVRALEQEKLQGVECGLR

O=c1sn(-c2ccc3c(c2)OCO3)c(=O)n1Cc1ccccc1
Ki [1]: 3.16 µM (active)
Ki [2]: 2 µM (active)
Ki [3]: 1.26 µM (active)

O=C(CSc1nc2ccccc2c(=O)[nH]1)NC1CCCC1
CC50 [4]: > 100 µM (active)
CC50 [5]: > 100 µM (active)

CCc1ccc(NC(=O)c2cnn3c(-c4ccccc4)ccnc23)cc1
Ki (LIM domain kinase 1): 3.16 µM (active)

CCOC(=O)C(C#N)c1c(Cl)cnn(Cc2cccc3ccccc23)c1=O (stereo not drawn)
IC50 [6]: 0.571 µM (active)
IC50 [7]: 7.76 µM (active)

Fc1ccc(Nc2ncnc(Nc3ccc4[nH]ncc4c3)n2)cc1
Ki (Wee1-like protein kinase): > 3.16 µM (inactive)
Ki [8]: 0.126 µM (active)

Cc1ccc([C@@H]2CC=C(C(=O)O)[C@H](c3cccc(Cl)c3)N2S(=O)(=O)c2ccccc2C)cc1
IC50 [9]: 0.601 µM (active)
IC50 (CHO-K1): > 66.2 µM (inactive)
IC50 [10]: 4.6 µM (active)
IC50 (Orexin receptor type 2 [11]): 3.9 µM (active)
IC50 [12]: 18.7 µM (inactive)
IC50 (Orexin receptor type 2 [13]): 0.67 µM (active)

CCS(=O)(=O)Nc1ccc2c(c1)C(=NO)c1ccccc1-2
Ki [14]: 3.16 µM (active)
Ki (Aurora kinase B): 0.0316 µM (active)
Ki (Aurora kinase A): 0.631 µM (active)

CCOC(=O)C(=Cc1ccc(-n2ccnc2)cc1)C(=O)OCC
IC50 [15]: > 64.6 µM (inactive)
AC50 [16]: 2.95 µM (active)
AC50 [17]: 9.38 µM (active)
IC50 (Melanocortin receptor 4): > 64.6 µM (inactive)
